Values joined by “and” are separate entries in the source; they are usually repeats but may differ in a detail not shown here. Equal values may be shown once. “Also recorded” adds a separate entry of the source. Read-outs that look alike come from different tables or passages of the source. Non-standard residues stand in square brackets, D forms with d. Residues, ends and D or L forms follow the SMILES beside them. *: point of attachment. Sta = CC(C)C[C@H](N)[C@@H](O)CC(=O)O; Isovaleryl = CC(C)CC(=O)*
Experiments:
[1] = molecular target: T1, Rlig1-AMP (Homo sapiens, UniProt Q8N999); test: FRET-based high-throughput screening of inhibitors for Rlig1-AMP; type: biochemical; details: for Raw data [w Enyzm]: with enzyme; for Raw data [w/o Enzym]: without enzyme
T1 construct: made in house; host or cells: E. coli BL21 (DE3), pET15b-Rlig1
T1 sequence (Q8N999 whole entry): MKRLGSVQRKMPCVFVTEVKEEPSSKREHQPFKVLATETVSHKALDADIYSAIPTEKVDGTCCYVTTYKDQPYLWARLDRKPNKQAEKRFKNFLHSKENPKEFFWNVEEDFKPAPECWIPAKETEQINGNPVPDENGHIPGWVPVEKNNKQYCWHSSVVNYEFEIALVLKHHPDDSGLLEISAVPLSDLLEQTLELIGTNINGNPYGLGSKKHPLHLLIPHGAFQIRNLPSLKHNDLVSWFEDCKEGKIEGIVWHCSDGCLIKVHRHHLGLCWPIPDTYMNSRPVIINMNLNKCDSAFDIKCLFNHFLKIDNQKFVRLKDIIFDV

[2] = system: kinesin-like protein KIFC1 (HSET/KIFC1); design: method as in MedChemExpress; details: ref MedChemExpress; cited from earlier work
[3] = system: SHSY5Y neuroblastoma cells; design: method as in MedChemExpress; details: ref MedChemExpress, cited from earlier work
[4] = DMSO; ref MedChemExpress; cited from earlier work
[5] = molecular target: T1, Rlig1-AMP; test: Radioactive RNA ligation assay (hit validation, 10 µM test and IC50 determination); type: biochemical; details: for IC50: n = 3; for percentage inhibition (dose response curve for IC50): replicates I-III
[6] = Cell viability assay of HEK293 cells treated with inhibitors and menadione; type: cell-based, human; details: human, HEK293 cells, 30 μM compound, 24 h, no menadione; read-out: cell viability without oxidative stress
[7] = system: HEK293 cells; test: as above; type: cell-based, human; details: inhibitor 24 h, then 40 μM menadione 5 h
[8] = system: HEK293 cells; test: RNA integrity analysis of HEK293 cells treated with inhibitors and menadione (TapeStation 28S/18S rRNA); type: cell-based, human; details: 30 μM compound 24 h; Menadione 0 μM
[9] = system: HEK293 cells; test: Light-microscopy of inhibitor- and menadione-treated HEK293 cells; type: cell-based, human; details: 30 µM compound 24 h, then menadione 5 h
[10] = system: DNA methyltransferases (DNMTs); details: cited from earlier work
[11] = in vitro; details: human
[12] = system: HEK293 cells; test: Cell viability assay of HEK293 cells treated with inhibitors (CellTiter-Glo)
[13] = molecular target: T2, human DNA ligase 1 (hLig1) (Homo sapiens, UniProt P18858); test: DNA ligation assay with various hLig1 concentration at constant inhibitor concentration; type: biochemical; details: 10 µM compound, 30 min 37 °C, three replicates
T2 construct: made in house; host or cells: E. coli Rosetta BL21 (DE3), pET28a-hLig1
T2 sequence (P18858 whole entry): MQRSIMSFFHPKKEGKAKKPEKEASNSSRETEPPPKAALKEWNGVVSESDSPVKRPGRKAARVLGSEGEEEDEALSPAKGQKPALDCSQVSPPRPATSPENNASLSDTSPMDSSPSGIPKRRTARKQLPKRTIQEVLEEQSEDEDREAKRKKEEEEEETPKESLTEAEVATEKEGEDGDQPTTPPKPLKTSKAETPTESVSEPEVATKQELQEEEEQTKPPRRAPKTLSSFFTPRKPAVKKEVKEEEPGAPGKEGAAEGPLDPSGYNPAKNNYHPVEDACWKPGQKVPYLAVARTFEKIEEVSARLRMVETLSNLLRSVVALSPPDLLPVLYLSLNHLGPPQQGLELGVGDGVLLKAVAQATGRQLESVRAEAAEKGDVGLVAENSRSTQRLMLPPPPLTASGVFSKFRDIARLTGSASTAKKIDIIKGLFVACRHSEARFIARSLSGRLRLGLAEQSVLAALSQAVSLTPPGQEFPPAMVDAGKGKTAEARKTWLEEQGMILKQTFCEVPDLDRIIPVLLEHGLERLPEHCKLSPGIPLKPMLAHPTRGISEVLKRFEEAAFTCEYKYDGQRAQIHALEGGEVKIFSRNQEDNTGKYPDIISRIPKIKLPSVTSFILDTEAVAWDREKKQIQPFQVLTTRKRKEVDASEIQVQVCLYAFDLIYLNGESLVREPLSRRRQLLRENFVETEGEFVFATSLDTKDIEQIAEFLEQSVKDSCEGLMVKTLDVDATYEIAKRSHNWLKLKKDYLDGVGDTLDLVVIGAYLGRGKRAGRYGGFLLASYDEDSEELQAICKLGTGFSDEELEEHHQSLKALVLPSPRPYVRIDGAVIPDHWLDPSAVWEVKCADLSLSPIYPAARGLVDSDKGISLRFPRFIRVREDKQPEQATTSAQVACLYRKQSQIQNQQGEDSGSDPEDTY

[14] = system: PI5P4Kα; design: method as in MedChemExpress [1]; details: ATP-competitive; ref MedChemExpress [1]; cited from earlier work
[15] = molecular target: protein kinase C (PKC); design: method as in MedChemExpress; details: PKC activity; ref MedChemExpress; cited from earlier work
[16] = ref MedChemExpress, cited from earlier work
[17] = system: pepsin; design: method as in MedChemExpress; details: ref MedChemExpress, cited from earlier work
[18] = molecular target: proctase; design: method as in MedChemExpress; details: ref MedChemExpress, cited from earlier work
[19] = system: acid protease; design: method as in MedChemExpress; details: ref MedChemExpress, cited from earlier work
[20] = DMSO; ultrasonic/warming; ref MedChemExpress; cited from earlier work
[21] = system: PKC; design: method as in MedChemExpress; details: ref MedChemExpress, cited from earlier work
[22] = HTS hits, difference of raw data w/o and w enzyme
[23] = HTS hits, normalized value (npi)
[24] = radioactive ligation assay, 500 nM Rlig1-AMP, 20 min 37 °C, read-out: IC50
[25] = log(inhibitor) vs. response, variable slope (four parameters)
[26] = HTS hits, difference of raw data without and with enzyme

## CCCc1cc(C(=O)N[C@H](Cc2ccc(-c3cccc(OC(F)(F)F)c3)nc2)C(=O)N[C@@H]2CCNC2)sc1C [AZ82]
[1]; [22]
  1-D Distance: 670
[1]; [23]
  1-D Distance.npi: 96.1946
[1]; HTS hits
  Raw data [w Enyzm]: 8773
  Raw data [w/o Enzym]: 9443
[2]
  IC50: 0.3 µM
  Ki: 0.043 µM

## COc1nc(-c2cc(C)c(N[C@@H](C)c3ccc(F)cc3)nn2)ccc1-n1cnc(C)c1 [BPN-15606]
[1]; [22]
  1-D Distance: 1474
[1]; [23]
  1-D Distance.npi: 75.4488
[1]; HTS hits
  Raw data [w Enyzm]: 8858
  Raw data [w/o Enzym]: 10332
[3]; read-out: IC50, production of Aβ40
  IC50: 0.017 µM
[3]; read-out: IC50, production of Aβ42
  IC50: 0.007 µM
[4]
  solubility: 100 mg/mL and 238.97 mM

## Cc1cc(Nc2ccc(NC(=O)c3ccc(Nc4ccnc5ccccc45)cc3)cc2)nc(N)n1 [Compound 1, SGI-1027, reference compound]
[1]; 10 μM compound, read-out: inhibition in HTS
  inhibition at 10 µM: > 70%
[1]; [22]
  1-D Distance: 390
[1]; HTS hits
  Raw data [w Enyzm]: 8456
  Raw data [w/o Enzym]: 8066
[5]; 10 µM compound, 37 °C, 20 min
  inhibition at 10 µM: > 70%
[5]; dose-response urea-PAGE (Fig. S3)
  formation of the RNA-adenylate intermediate: inhibited the formation of the RNA-adenylate intermediate
[5]; [24]
  IC50: 3.96 µM
[6]
  viability at 24 h, 30 µM: 50%
[7]
  cell viability under oxidative stress (in words): almost complete loss of viability
[8]
  28S/18S ratio: > 2
[9]
  cell morphology: poor adherence and cell shrinkage
[10]; DNMT1, poly(dI-dC) as substrate, ref MedChemExpress, read-out: IC50
  IC50: 12.5 µM
[10]; DNMT3A, poly(dI-dC) as substrate, ref MedChemExpress, read-out: IC50
  IC50: 8 µM
[10]; DNMT3B, poly(dI-dC) as substrate, ref MedChemExpress, read-out: IC50
  IC50: 7.5 µM
[10]; read-out: IC50 DNMTs
  IC50: 6 to 13 µM
[11]
  viability at 24 h, 0.234375 µM: 113%
  viability at 24 h, 0.46875 µM: 103%
  viability at 24 h, 0.9375 µM: 104%
  viability at 24 h, 1.875 µM: 101%
  viability at 24 h, 3.75 µM: 91.9%
  viability at 24 h, 7.5 µM: 83.6%
  viability at 24 h, 15 µM: 60.5%
  viability at 24 h, 30 µM: 51%
[4]
  solubility: 27 mg/mL and 58.50 mM
[12]; HEK293, 24 h, up to 30 μM
  cytotoxicity (in words): moderate cytotoxicity
[12]; HEK293 cell viability, fit per plate (3 plates, 4 technical replicates each), highest tested concentration 30 µM
  IC50 (Figure 3D: EC50 values for plot; log(inhibitor) vs. response -- Variable slope (four parameters)): 26.0265 µM and 22.3419 µM and 19.1567 µM
[12]; HEK293 cell viability, fit per plate (3 plates, 4 technical replicates each), log of [µM]
  LogIC50 (log(inhibitor) vs. response -- Variable slope (four parameters)): 1.415 and 1.349 and 1.282
[12]; Homo sapiens, HEK293, 24 h
  EC50: 23.2 µM

## Nc1nccc(Nc2ccc(NC(=O)c3ccc(Nc4ccnc5ccccc45)cc3)cc2)n1 [Compound 26]
[5]; 10 μM compound, 500 nM Rlig1-AMP, 20 min 37 °C
  inhibition of Rlig1-AMP ligation (urea-PAGE): Ligation was inhibited; also recorded: fully inhibited
[5]; four-parameter fit
  HillSlope (best-fit value): 3.34
  Span (best-fit value): 95.37
[5]; four-parameter fit, read-out: IC50 (best-fit value)
  IC50: 4.49 µM
[5]; log Compound [µM] 0.273001
  percentage inhibition (dose response curve for IC50): 7.036 and 5.771 and 6.366
[5]; log Compound [µM] 0.574031
  percentage inhibition (dose response curve for IC50): 19.5464 and 52.3001 and 38.2038
[5]; log Compound [µM] 0.875061
  percentage inhibition (dose response curve for IC50): 94.6767 and 96.3427 and 56.3237
[5]; log Compound [µM] 1.17609
  percentage inhibition (dose response curve for IC50): 97.6992 and 100 and 95.9858
[5]; log Compound [µM] 1.47712
  percentage inhibition (dose response curve for IC50): 89.2369 and 100 (2×)
[5]; log Compound [µM] -0.0280287
  percentage inhibition (dose response curve for IC50): 3.692 and 2.642 and 2.052
[5]; log Compound [µM] -0.329059
  percentage inhibition (dose response curve for IC50): 0 and 3.294 and 5.142
[5]; log Compound [µM] -0.630089
  percentage inhibition (dose response curve for IC50): 0 and 3.877 and 4.72
[5]; log of µM, four-parameter fit
  LogIC50 (best-fit value): 0.6524
[5]; [25]
  Bottom (best-fit value): 2.425
  Top (best-fit value): 97.8
[5]; [24]
  IC50: 4.49 µM
[13]; hlig1 0.0315 µM
  DNA product formation: 43.039% and 22.9913% and 34.3002%
[13]; hlig1 0.0625 µM
  DNA product formation: 60.9211% and 39.0213% and 52.249%
[13]; hlig1 0.5 µM
  DNA product formation: 79.5392% and 84.6219% and 85.9221%
[9]
  cell morphology: poor adherence and cell shrinkage

## COc1cc(/C=C(\C#N)C(=O)c2ccc(O)c(O)c2)cc(I)c1O [I-OMe-Tyrphostin AG 538]
[1]; sheet HTS hits, MedChemExpress library
  1-D Distance.npi: 98.3407
[1]; sheet HTS hits, difference of raw data w/o and w enzyme
  1-D Distance: 515
[1]; sheet HTS hits
  Raw data [w Enyzm]: 1659
  Raw data [w/o Enzym]: 2174
[14]
  IC50: 1 µM

## Cl.Cl.O=C1c2c(O)ccc(O)c2C(=O)c2c(NCCNCCO)ccc(NCCNCCO)c21 [Mitoxantrone (dihydrochloride)]
[1]; HTS hits, MedChemExpress library
  1-D Distance.npi: 101.642
[1]; [26]
  1-D Distance: 208
[1]; HTS hits
  Raw data [w Enyzm]: 3238
  Raw data [w/o Enzym]: 3030
[15]
  IC50: 8.5 µM

## O=C1c2c(O)ccc(O)c2C(=O)c2c(NCCNCCO)ccc(NCCNCCO)c21 [Mitoxantrone]
[1]; [26]
  1-D Distance: 308
[1]; HTS hits
  Raw data [w Enyzm]: 3553
  Raw data [w/o Enzym]: 3245
[15]
  IC50: 8.5 µM
[16]; DMSO
  solubility: 62.5 mg/mL and 140.61 mM
[16]; H2O
  solubility: 100 mg/mL and 224.98 mM

## CC(C)CC(=O)N[C@H](C(=O)N[C@H](C(=O)N[C@@H](CC(C)C)[C@@H](O)CC(=O)N[C@@H](C)C(=O)N[C@@H](CC(C)C)[C@@H](O)CC(=O)O)C(C)C)C(C)C [Pepstatin] (Isovaleryl-VV[Sta]A[Sta]-OH)
[1]; [22]
  1-D Distance: 1754
[1]; HTS hits
  Raw data [w Enyzm]: 8928
  Raw data [w/o Enzym]: 10682
[17]; substrate casein, read-out: IC50, casein-pepsin
  IC50: 0.15 µM
[17]; substrate hemoglobin, read-out: IC50, hemoglobin-pepsin
  IC50: 0.0045 µM
[18]; substrate casein, read-out: IC50, casein-proctase
  IC50: 0.29 µM
[18]; substrate hemoglobin, read-out: IC50, hemoglobin-proctase
  IC50: 0.0062 µM
[19]; substrate casein, read-out: IC50, casein-acid protease
  IC50: 0.52 µM
[19]; substrate hemoglobin, read-out: IC50, hemoglobin-acid protease
  IC50: 0.26 µM
[20]
  solubility, DMSO: 125 mg/mL and 182.24 mM

## CCCCC(=O)OCC(=O)[C@]1(O)Cc2c(O)c3c(c(O)c2[C@@H](O[C@H]2C[C@H](NC(=O)C(F)(F)F)[C@H](O)[C@H](C)O2)C1)C(=O)c1c(OC)cccc1C3=O [Valrubicin]
[1]; [22]
  1-D Distance: 1660
[1]; HTS hits
  Raw data [w Enyzm]: 2541
  Raw data [w/o Enzym]: 4201
[21]; PDBu-induced, read-out: IC50, PDBu-induced PKC activation
  IC50: 1.25 µM
[21]; TPA-induced, read-out: IC50, TPA-induced PKC activation
  IC50: 0.85 µM
[20]
  solubility, DMSO: 125 mg/mL and 172.74 mM

— article PMC11747885, “Potent inhibitors of the human RNA ligase Rlig1 highlights its role in RNA integrity maintenance under oxidative cellular stress” (Chemical Science, 2025)
